Experimental data as given in article PMC8151276, “An Integrated Approach toward NanoBRET Tracers for Analysis of GPCR Ligand Engagement” (Molecules, 2021).

Legend:
[1] = biological target: T1, HTR1F (Homo sapiens, UniProt P30939); test: NanoBRET screen HiBiT-HTR1F in HEK293; type: binding
T1 construct: purchased Promega (in-house HiBiT-GPCR construct library, NanoBRET)
T1 sequence (P30939 1-366): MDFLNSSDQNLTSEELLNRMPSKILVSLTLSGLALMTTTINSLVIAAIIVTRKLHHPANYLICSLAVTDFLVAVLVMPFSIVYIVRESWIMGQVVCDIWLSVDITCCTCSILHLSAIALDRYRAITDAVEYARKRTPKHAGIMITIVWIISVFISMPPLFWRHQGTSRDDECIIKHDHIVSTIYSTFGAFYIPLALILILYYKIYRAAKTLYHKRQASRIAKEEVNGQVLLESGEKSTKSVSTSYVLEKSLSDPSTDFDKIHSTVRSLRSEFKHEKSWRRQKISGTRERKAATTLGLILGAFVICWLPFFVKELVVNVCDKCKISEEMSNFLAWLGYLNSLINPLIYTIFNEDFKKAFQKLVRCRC
Experimental: (§1) Each tracer candidate was screened across the entire library of HiBiT-GPCR constructs using NanoBRET as the detection modality. As depicted in Figure 4A, the specificity of interactions was evaluated through decrease in BRET due to competitive displacement of a bound tracer by excess parental compound. Each tracer was analyzed for binding to each HiBiT-GPCR fusion in the absence and in the presence of competing parental compound. Briefly, HEK293 cells were transfected with HiBiT-GPCR constructs diluted into promoterless DNA to reduce expression and maximize translocation to the cell surface. Each tracer candidate was then screened at concentrations of 1 μM and 0.1 μM across cells expressing these fusions. Cells were treated for 1.5 h with tracer either alone or in the presence of 20 μM competing parental compound (i.e., control). BRET was measured upon addition of purified LgBiT and subsequent complementation with HiBiT genetically fused to a GPCR. The specificity of interactions was assessed through a decrease in BRET signal due to competitive displacement of the bound tracer. To further gauge the robustness of these interactions, the fold response over the control (i.e., BRETtracer/BRETcontrol) was calculated. We chose a 1.5-fold response, which translates to ≥7-fold signal over noise as the minimal threshold required to score an interaction as positive.
(§2) HiBiT-GPCR DNA constructs were diluted in 10 mM Tris pH 8 to a final concentration of 0.01 μg/μL, arrayed in 96-well plates and stored at −20 °C. For transfection, HEK293 cells were suspended in Opti-MEM (without phenol red) supplemented with 2% fetal bovine serum (Seradigm) and 100 units/mL penicillin–streptomycin (Gibco) at a final concentration of 220,000 cells/mL and dispensed into white 96-well plates at 90 μL/well. Subsequent transfections and screens were carried using an Agilent Bravo Automated Liquid Handling Platform. First, the 96-well HiBiT DNA arrays were diluted 25-fold in Opti-MEM (without serum or phenol red) to a final concentration of 0.0004 μg/μL and 20 μL of the diluted DNAs were transferred into new 96-well plates. Next, promoterless carrier DNA (1 μg/μL) was diluted 25-fold (0.04 μg/μL) and then dispensed into the diluted arrays at 20 μL/well. Following brief mixing, Viafect transfection reagent (Promega) diluted 16-fold into Opti-MEM was dispensed into the plates at 40 μL/well. After mixing by pipetting, plates were incubated for 10 min on the pipetting station deck. The DNA-transfection reagent complexes were then added to plates containing cells. To facilitate the screen, 10 μL of DNA-transfection reagent complexes were added in duplicates to the top 4 and bottom 4 rows, resulting in two identical 48-well arrays per plate. Plates with transfected cells were incubated for 18–20 h at 37 °C/5% CO2. A screen of each tracer across the entire library using two different concentrations requires duplicate plates of transfected cells. Depending on the number of tracers being screened, transfections can be scaled up using the same ratios. The next day, for each tracer, four 20× screening solutions in tracer dilution buffer (Promega) were prepared: two duplicates at final concentration of 20 μM and two duplicates at a final concentration of 2 μM. […] The four resulting solutions were diluted 4-fold in Opti-MEM without serum or phenol red to generate 5× solutions (5 µM and 0.5 µM tracer +/− 100 μM competing compound). To screen the library, a BioTek MultiFlo FX liquid dispenser was used to dispense 22.5 µL of tracer solution to the top 4 rows and 22.5 µL tracer + competing compound solution to the 4 bottom rows. Plates were briefly mixed on an orbital shaker and incubated for 1.5 h at room temperature. […] Plates were briefly mixed on an orbital shaker and incubated for 15 min to allow complementation.

[2] = biological target: T2, HTR1A (Homo sapiens, UniProt P08908); test: NanoBRET screen HiBiT-HTR1A in HEK293; type: binding
T2 construct: purchased Promega (in-house HiBiT-GPCR construct library, NanoBRET)
T2 sequence (P08908 1-422): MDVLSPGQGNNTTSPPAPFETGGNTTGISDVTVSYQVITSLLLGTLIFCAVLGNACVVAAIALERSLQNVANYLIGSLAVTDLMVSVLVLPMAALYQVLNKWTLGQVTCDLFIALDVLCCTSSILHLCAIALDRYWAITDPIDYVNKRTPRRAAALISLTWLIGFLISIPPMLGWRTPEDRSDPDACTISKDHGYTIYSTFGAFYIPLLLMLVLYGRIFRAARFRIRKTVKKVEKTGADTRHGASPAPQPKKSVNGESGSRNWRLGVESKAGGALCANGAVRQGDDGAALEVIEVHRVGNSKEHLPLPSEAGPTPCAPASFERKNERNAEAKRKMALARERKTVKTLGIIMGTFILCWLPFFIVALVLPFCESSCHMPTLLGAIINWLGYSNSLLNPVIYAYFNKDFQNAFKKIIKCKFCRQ
Experimental: as §1, §2

[3] = tracer at 0.1μM, listed as amitriptyline-b-2-NB590

Row | SMILES | NanoBRET Fold Response ([1]; HTR1F, tracer 0.1μM) | NanoBRET Fold Response ([1]; HTR1F, tracer 1μM) | NanoBRET Fold Response ([2]; HTR1A, tracer 0.1μM) | NanoBRET Fold Response ([2]; HTR1A, tracer 1μM) | further results
1 | O=C(CCc1ccc2n1[B-](F)(F)[N+]1=C(c3ccc[nH]3)C=CC1=C2)NCc1ccc(C(=O)NCCOCCC(=O)N[C@@H]2CC[C@@]3(O)[C@H]4Cc5ccc(O)c6c5[C@@]3(CCN4CC3CC3)[C@H]2O6)cc1 [Naltrexone-3-NB590] | 1.35 | 1.30 | 0.94 | 1.03 | –
2 | CCCn1c(=O)c2[nH]c(-c3ccc(OCC(=O)NCCNC(=O)CCOCCNC(=O)c4ccc(CNC(=O)CCc5ccc6n5[B-](F)(F)[N+]5=C(c7ccc[nH]7)C=CC5=C6)cc4)cc3)nc2n(CCC)c1=O [XAC-3-NB590] | 1.07 | 1.05 | 1.01 | 0.89 | –
3 | CC(C)N(CC[C@H](c1ccccc1)c1cc(CCNC(=O)c2ccc(CNC(=O)CCc3ccc4n3[B-](F)(F)[N+]3=C(c5ccc[nH]5)C=CC3=C4)cc2)ccc1O)C(C)C [Tolterodine-BZ-NB590] | 1.24 | 1.63 | 1.03 | 1.12 | –
4 | N#CN/C(=N\CCNC(=O)c1ccc(N)cc1)NCCCOc1cccc(CN2CCCCC2)c1 [Aminopotentidine (unmodified)] | – | – | – | – | NanoBRET Fold Response ([1]; HTR1F, other tracers/Aminopotentidine (unmodified), 0.1μM): 1.04; NanoBRET Fold Response ([1]; HTR1F, other tracers/Aminopotentidine (unmodified), 1μM): 1.21; NanoBRET Fold Response ([2]; HTR1A, other tracers/Aminopotentidine (unmodified), 0.1μM): 1.28; NanoBRET Fold Response ([2]; HTR1A, other tracers/Aminopotentidine (unmodified), 1μM): 1.69
5 | COc1ccc2[nH]c(-c3ccc(CNC(=O)CCOCCOCCOCCOCCNC(=O)CCc4ccc5n4[B-](F)(F)[N+]4=C(c6ccc[nH]6)C=CC4=C5)cc3)c(CCNC(C)=O)c2n1 [AzomelatoninICO9-2-NB590] | – | – | – | – | NanoBRET Fold Response ([1]; 0.1μM tracer): 0.92; NanoBRET Fold Response ([1]; 1μM tracer): 0.95; NanoBRET Fold Response ([2]; 0.1μM tracer): 0.95; NanoBRET Fold Response ([2]; 1μM tracer): 1.15
6 | CN1CCN(C2=Nc3cc(Cl)ccc3N(CC(=O)NCCOCCOCCOCCOCCNC(=O)CCc3ccc4n3[B-](F)(F)[N+]3=C(c5ccc[nH]5)C=CC3=C4)c3ccccc32)CC1 [Clozapine-c-2-NB590] | – | – | – | – | NanoBRET Fold Response ([1]; HTR1F, 0.1μM tracer): 1.02; NanoBRET Fold Response ([1]; HTR1F, 1μM tracer): 0.91; NanoBRET Fold Response ([2]; HTR1A, 1μM tracer): 1.12
7 | COc1ccccc1N1CCN(CCCCN2C(=O)c3ccc(CNC(=O)CCOCCNC(=O)c4ccc(CNC(=O)CCc5ccc6n5[B-](F)(F)[N+]5=C(c7ccc[nH]7)C=CC5=C6)cc4)cc3C2=O)CC1 [NAN-190-3-NB590] | 2.92 | 1.93 | – | 1.70 | –
8 | Cc1nc2n(c(=O)c1CCN1CCC(c3noc4cc(F)ccc34)CC1)CCCC2OC(=O)NCCOCCOCCOCCOCCNC(=O)CCc1ccc2n1[B-](F)(F)[N+]1=C(c3ccc[nH]3)C=CC1=C2 (centres unmarked) [Risperidone-2-NB590] | 0.98 | 1.07 | 1.24 | 1.15 | –
9 | O=C(CCOCCOCCOCCOCCNC(=O)CCc1ccc2n1[B-](F)(F)[N+]1=C(c3ccc[nH]3)C=CC1=C2)NCCCN1CCN(C2=Nc3ccccc3Oc3ccc(Cl)cc32)CC1 [Loxapine-a-2-NB590] | 1.01 | 1.07 | 1.15 | 1.19 | –
10 | COc1ccccc1N1CCN(CCCCN2C(=O)c3ccc(CNC(=O)CCOCCOCCOCCOCCNC(=O)CCc4ccc5n4[B-](F)(F)[N+]4=C(c6ccc[nH]6)C=CC4=C5)cc3C2=O)CC1 [NAN-190-2-NB590] | 1.29 | 2.39 | 2.15 | 1.76 | –
11 | CC(C)N(CC[C@H](c1ccccc1)c1cc(CCNC(=O)CCOCCOCCOCCOCCNC(=O)CCc2ccc3n2[B-](F)(F)[N+]2=C(c4ccc[nH]4)C=CC2=C3)ccc1O)C(C)C [Tolterodine-2-NB590] | 0.90 | 1.13 | 1.14 | 1.06 | –
12 | N#CN=C(NCCCOc1cccc(CN2CCCCC2)c1)NCCNC(=O)CCOCCOCCOCCOCCNC(=O)CCc1ccc2n1[B-](F)(F)[N+]1=C(c3ccc[nH]3)C=CC1=C2 [Aminopotentidine-2-NB590] | 1.07 | 1.05 | 1.04 | 0.98 | –
13 | CCOC(=O)c1cc(C#N)c(N2CCC(C(=O)NS(=O)(=O)Cc3ccccc3/C=C/C(=O)NCCNC(=O)CCc3ccc4n3[B-](F)(F)[N+]3=C(c5ccc[nH]5)C=CC3=C4)CC2)nc1C [AZD1283-1-NB590] | – | – | – | – | NanoBRET Fold Response ([1]; HTR1F, 0.1μM): 1.04; NanoBRET Fold Response ([1]; HTR1F, 1μM): 1.02; NanoBRET Fold Response ([2]; HTR1A, 0.1μM): 0.97; NanoBRET Fold Response ([2]; HTR1A, 1μM): 1.04
14 | CN(C)CCC=C1c2ccccc2CCc2ccc(C(=O)NCCNC(=O)CCOCCOCCOCCOCCNC(=O)CCc3ccc4n3[B-](F)(F)[N+]3=C(c5ccc[nH]5)C=CC3=C4)cc21 [Amitriptyline-b-2-NB590] | – | – | – | – | NanoBRET Fold Response [1, 3]: 1.43; NanoBRET Fold Response [2, 3]: 1.19; NanoBRET Fold Response ([2]; tracer at 1μM, listed as amitriptyline-b-2-NB590): 1.02
15 | CN(C)CCC=C1c2ccccc2CCc2ccc(C(=O)NCCNC(=O)CCOCCOCCOCCOCCNC(=O)CCc3ccc4n3[B-](F)(F)[N+]3=C(c5ccc[nH]5)C=CC3=C4)cc21 [Amitriptyline-a-2-NB590] | – | – | – | – | NanoBRET Fold Response ([1]; tracer at 0.1μM): 0.97; NanoBRET Fold Response ([1]; tracer at 1μM): 1.02; NanoBRET Fold Response ([2]; tracer at 0.1μM): 1.33; NanoBRET Fold Response ([2]; tracer at 1μM): 1.04
16 | O=C(CCc1ccc2n1[B-](F)(F)[N+]1=C(c3ccc[nH]3)C=CC1=C2)NCCOCCOCCNC(=O)OCCOCCN1CCN(C2=Nc3ccccc3Sc3ccccc32)CC1 [Quetiapine-a-2-NB590] | 1.01 | 0.95 | 1.09 | 1.04 | –
17 | Cc1cc2c(s1)Nc1ccccc1N=C2N1CCN(CCCNC(=O)CCOCCOCCOCCOCCNC(=O)CCc2ccc3n2[B-](F)(F)[N+]2=C(c4ccc[nH]4)C=CC2=C3)CC1 [Olanzapine-a-2-NB590] | 1.01 | 1.21 | 0.99 | 1.06 | –
